In patent US20190142810A1, “MITOCHONDRIAL INHIBITORS FOR THE TREATMENT OF PROLIFERATION DISORDERS” (Basilea Pharmaceutica International AG, priority 2016, published 2019):

Experiments:
HeLa galactose cells = test: Cell growth and proliferation assay of HeLa galactose cells (crystal violet); type: cell-based; conditions: Homo sapiens, HeLa, 72 h, 72 hours incubation, crystal violet staining, absorbance at 590 nm
In short: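 HeLa cells adapted stepwise over three weeks to glucose-free galactose medium plus 10 mM galactose, seeded at 2000 cells/well and treated 72 h with compounds (0.001% DMSO) at 37° C. Growth read by crystal violet staining, dye solubilized and absorbance at 590 nm; IC50 from concentration-response curves.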

[1] = tested on: Oxygen consumption (mitochondrial function); test: Oxygen consumption assay (MitoXpress probe); type: cell-based; conditions: 5 h, MitoXpress probe signal, kinetic analysis at 37° C. for 5 hours, compared to untreated cells
Description: Oxygen consumption is one of the most informative and direct measures of mitochondrial function and can be measured, for example, by using the MitoXpress® assay (Luxcel MX-2001, Luxcel Biosciences). The MitoXpress® probe is one of a family of phosphorescent oxygen sensitive probes. The assay exploits the ability of oxygen to quench the excited state of the MitoXpress® probe. As the test material respires (i.e. the cells), oxygen is depleted in the surrounding solution/environment, which increases the probe phosphorescence signal. Changes in oxygen consumption reflecting changes in mitochondrial activity are seen as changes in the MitoXpress® probe signal over time.
Cells were seeded in 96 well black plates with transparent bottoms (Greiner Bio-One cat. no. 655090) at a density of 50′000 cells/well in a final volume of 100 μL. After 24 hours the incubation media was removed and 150 μL of fresh media containing inhibitors at different concentrations was added to each well. Then, 10 μL of MitoXpress® and 150 μL mineral oil were added per well. Reading from the top of the plate, kinetic analysis was performed at 37° C. for 5 hours using a Synergy 4 plate reader (BioTek) and Time-resolved Fluoresence (TRF) wavelengths of 380/11 nm excitation and 650/20 nm emission or 665/40 emission (30 microsecond delay time, 100 microsecond integration time, gain or sensitivity settings set at either medium or high). IC50s were calculated as the concentration that inhibits 50% of the phosphorescent oxygen sensitive probe signal (MitoXpress®) as compared to untreated cells.

| Structure (SMILES) | IC50 (HeLa galactose cells) [nM] | IC50 [1] [nM] |
| --- | --- | --- |
| Cc1nsc(NC(=O)N2CC/C(=C\c3ccc(Cl)cc3F)CC2C)n1 (stereo not shown) [Example 86, (4E)-4-[(4-chloro-2-fluoro-phenyl)methylene]-2-methyl-N-(3-methyl-1,2,4-thiadiazol-5-yl)piperidine-1-carboxamide] | 21 | 61 |
| Cc1nsc(NC(=O)N2CC/C(=C/c3ccc(Cl)cc3F)CC2C(C)C)n1 (stereo not shown) [Example 87] | 262 | 335 |
| Cc1nsc(NC(=O)N2CCC(=Cc3ccc(CO)cc3F)CC2)n1 [Example 89, 4-[[2-fluoro-4-(hydroxymethyl)phenyl]methylene]-N-(3-methyl-1,2,4-thiadiazol-5-yl)piperidine-1-carboxamide] | 228 | 352 |
| Cc1nsc(NC(=O)N2CCC(C(=O)c3ccc(Cl)cc3F)CC2)n1 [Example 92, 4-(4-chloro-2-fluoro-benzoyl)-N-(3-methyl-1,2,4-thiadiazol-5-yl)piperidine-1-carboxamide] | 57 | 62 |
| COCc1ccc(C=C2CCN(C(=O)Nc3nc(C)ns3)CC2)c(F)c1 [Example 93, 4-[[2-fluoro-4-(methoxymethyl)phenyl]methylene]-N-(3-methyl-1,2,4-thiadiazol-5-yl)piperidine-1-carboxamide] | 56 | 63 |
| O=C(Nc1ccncc1)N1CCC(=Cc2ccc(Cl)cc2F)CC1 [Example 94] | 97 | 159 |
| Cc1nsc(NC(=O)N2CCC(=Cc3c(F)cc(C#N)cc3F)CC2)n1 [Example 95, 4-[(4-cyano-2,6-difluoro-phenyl)methylene]-N-(3-methyl-1,2,4-thiadiazol-5-yl)piperidine-1-carboxamide] | 20 | 30 |
| O=C(Nc1nc(CCO)ns1)N1CCC(Cc2ccc(Cl)cc2F)CC1 [Example 96] | 208 | 361 |
| COc1cc(F)c(C=C2CCN(C(=O)Nc3nc(C)ns3)CC2)c(F)c1 [Example 97, 4-[(2,6-difluoro-4-methoxy-phenyl)methylene]-N-(3-methyl-1,2,4-thiadiazol-5-yl)piperidine-1-carboxamide] | 28 | 30 |
| COc1cc(F)c(CC2CCN(C(=O)Nc3nc(C)ns3)CC2)c(F)c1 [Example 98, 4-[(2,6-difluoro-4-methoxy-phenyl)methyl]-N-(3-methyl-1,2,4-thiadiazol-5-yl)piperidine-1-carboxamide] | 39 | 76 |
| Cc1nsc(NC(=O)N2CCC(Cc3c(F)cc(O)cc3F)CC2)n1 [Example 100] | 200 | 402 |
| Cc1nsc(NC(=O)N2CCC(=Cc3ccc(NCCN)cc3F)CC2)n1 [Example 101, 4-[[4-(2-aminoethylamino)-2-fluoro-phenyl]methylene]-N-(3-methyl-1,2,4-thiadiazol-5-yl)piperidine-1-carboxamide] | 251 | 412 |
| Cc1nsc(NC(=O)N2CCC(=Cc3ccc(NCCCN)cc3F)CC2)n1 [Example 102] | 189 | 395 |
| COc1ccc(C=C2CCCN(C(=O)Nc3nc(C)ns3)CC2)c(F)c1 [Example 103] | 71 | 156 |
| Nc1nsc(NC(=O)N2CCC(Cc3ccc(Cl)cc3F)CC2)n1 [Example 108, N-(3-amino-1,2,4-thiadiazol-5-yl)-4-[(4-chloro-2-fluoro-phenyl)methyl]piperidine-1-carboxamide] | 96 | 132 |
| CNc1ccc(C=C2CCN(C(=O)Nc3nc(C)ns3)CC2)c(F)c1 [Example 109] | 55 | 103 |
| Cc1nsc(NC(=O)N2CCC(=Cc3ccc(N(C)CCO)cc3F)CC2)n1 [Example 110] | 66 | 151 |
| Cc1nsc(NC(=O)N2CCC(=Cc3c(F)cc(N(C)C)cc3F)CC2)n1 [Example 112, 4-[[4-(dimethylamino)-2,6-difluoro-phenyl]methylene]-N-(3-methyl-1,2,4-thiadiazol-5-yl)piperidine-1-carboxamide] | 12 | 23 |
| Cc1nsc(NC(=O)N2CCC(Cc3c(F)cc(N(C)C)cc3F)CC2)n1 [Example 113, 4-[[4-(dimethylamino)-2,6-difluoro-phenyl]methyl]-N-(3-methyl-1,2,4-thiadiazol-5-yl)piperidine-1-carboxamide] | 35 | 52 |
| Cc1nsc(NC(=O)N2CCCC(=Cc3c(F)cc(Cl)cc3F)CC2)n1 [Example 114] | 19 | 65 |
| Cc1nsc(NC(=O)N2CCC/C(=C/c3c(F)cc(N(C)C)cc3F)CC2)n1 [Example 115, (4Z)-4-[[4-(dimethylamino)-2,6-difluoro-phenyl]methylene]-N-(3-methyl-1,2,4-thiadiazol-5-yl)azepane-1-carboxamide] | 29 | 79 |
| Cc1nsc(NC(=O)N2CCCC(=Cc3ccc(C(F)(F)F)cc3F)CC2)n1 [Example 116] | 54 | 150 |
| Cc1nsc(NC(=O)N2CCCC(=Cc3ccc(C#N)cc3F)CC2)n1 [Example 117] | 77 | 145 |
| Cc1nsc(NC(=O)N2CCC/C(=C/c3ccc(Cl)cc3F)CC2)n1 [Example 118, (4Z)-4-[(4-chloro-2-fluoro-phenyl)methylene]-N-(3-methyl-1,2,4-thiadiazol-5-yl)azepane-1-carboxamide] | 43 | 70 |
| Cc1nsc(NC(=O)N2CCCC(Cc3ccc(C(F)(F)F)cc3F)CC2)n1 (stereo not shown) [Example 120, 4-[[2-fluoro-4-(trifluoromethyl)phenyl]methyl]-N-(3-methyl-1,2,4-thiadiazol-5-yl)azepane-1-carboxamide] | 32 | 54 |

More lines, main results first:

| IC50 (HeLa galactose cells) [nM] | Structure (SMILES) | IC50 [1] [nM] |
| --- | --- | --- |
| 20 | Cc1nsc(NC(=O)N2CCCC(Cc3c(F)cc(N(C)C)cc3F)CC2)n1 (stereo not shown) [Example 121, 4-[[4-(dimethylamino)-2,6-difluoro-phenyl]methyl]-N-(3-methyl-1,2,4-thiadiazol-5-yl)azepane-1-carboxamide] | 54 |
| 15 | Cc1nsc(NC(=O)N2CCCC(Cc3c(F)cc(Cl)cc3F)CC2)n1 (stereo not shown) [Example 127, 4-[(4-chloro-2,6-difluoro-phenyl)methyl]-N-(3-methyl-1,2,4-thiadiazol-5-yl)azepane-1-carboxamide] | 35 |
| 33 | Cc1cc(NC(=O)N2CCC(=Cc3ccc(Cl)cc3F)CC2)ccn1 [Example 128] | 168 |
| 16 | Cc1nsc(NC(=O)N2CCC(Cc3c(F)cc(C#N)cc3F)CC2)n1 [Example 129, 4-[(4-cyano-2,6-difluoro-phenyl)methyl]-N-(3-methyl-1,2,4-thiadiazol-5-yl)piperidine-1-carboxamide] | 20 |
| 17 | Cc1cc(NC(=O)N2CCC(=Cc3c(F)cc(Cl)cc3F)CC2)ccn1 [Example 137, 4-[(4-chloro-2,6-difluoro-phenyl)methylene]-N-(2-methyl-4-pyridyl)piperidine-1-carboxamide] | 42 |
| 21 | Cc1cc(NC(=O)N2CCC(=Cc3c(F)cc(C(F)(F)F)cc3F)CC2)ccn1 [Example 138, 4-[[2,6-difluoro-4-(trifluoromethyl)phenyl]methylene]-N-(2-methyl-4-pyridyl)piperidine-1-carboxamide] | 147 |
| 22 | Cc1cc(NC(=O)N2CCC(Cc3c(F)cc(C(F)(F)F)cc3F)CC2)ccn1 [Example 139] | 152 |
| 43 | COc1ccc(C(=O)C2CCN(C(=O)Nc3nc(C)ns3)CC2)c(F)c1 [Example 140, 4-(2-fluoro-4-methoxy-benzoyl)-N-(3-methyl-1,2,4-thiadiazol-5-yl)piperidine-1-carboxamide] | 94 |
| 29 | Cc1nsc(NC(=O)N2CCC(C(=O)c3ccc(Br)cc3F)CC2)n1 [Example 141, 4-(4-bromo-2-fluoro-benzoyl)-N-(3-methyl-1,2,4-thiadiazol-5-yl)-piperidine-1-carboxamide] | 56 |
| 43 | Cc1cc(NC(=O)N2CCC(C(=O)c3ccc(C(F)(F)F)cc3F)CC2)ccn1 [Example 143] | 103 |
| 8 | CCc1cc(NC(=O)N2CCC(=Cc3ccc(Cl)cc3F)CC2)ccn1 [Example 144, 4-[(4-chloro-2-fluoro-phenyl)methylene]-N-(2-ethyl-4-pyridyl)piperidine-1-carboxamide] | 53 |
| 15 | Cc1cc(NC(=O)N2CCC(Cc3c(F)cc(Cl)cc3F)CC2)ccn1 [Example 145] | 106 |
| 13 | COCCN(C)c1cc(F)c(C=C2CCN(C(=O)Nc3nc(C)ns3)CC2)c(F)c1 [Example 146, 4-[[2,6-difluoro-4-[2-methoxyethyl(methyl)amino]phenyl]methylene]-N-(3-methyl-1,2,4-thiadiazol-5-yl)piperidine-1-carboxamide] | 20 |
